Results on eleven substances are retold here after patent US20120321656A1, “OLIGOPEPTIDES AND THEIR USE FOR TREATING INFECTIOUS DISEASES” (priority 2011, published 2012).

The assay deals with BALB/c female mouse. Put plainly: Immune response to individual peptide: mouse immunization, then indirect solid-phase immunoenzymatic assay (ELISA) of serum antibodies to peptide. In kind it is in vivo. The following applies: BALB/c mice, i.p. 100 μg peptide+Str-HRP with Freund's adjuvant; for Immunogenicity group: serum day 38, ELISA; for Overall ranking of antigenicity / Antigenicity compared to best ranking peptide (Average value calculated by removing outlier which exceeded 1 SD value) / Antigenicity compared to best ranking peptide (Median value): serum day 38, ELISA A450; for Antigenicity compared to best ranking peptide (Average value calculated by removing outlier which exceeded 1 SD value): average without outliers >1 SD.

With “L-R-A-Q-D-D-Y-N-G-W-D-I (LRAQDDYNGWDI; Mycobacterium Tuberculosis Synthetic Peptide) [SEQ ID 4, oligopeptide from MT Antigen 85 (Ag 85)]”, the Immunogenicity group entry is reported as “relatively strong immunogenicity”, the “Overall ranking of antigenicity” value stood at 2, the “Antigenicity compared to best ranking peptide (Average value calculated by removing outlier which exceeded 1 SD value)” value was 1.4 and the “Antigenicity compared to best ranking peptide (Median value)” value worked out at 1.0.

In the case of “V-Y-E-S-T-E-T-T-E-R-P-E-H-H-E-F-K-Q-A (VYESTETTERPEHHEFKQA; Mycobacterium Tuberculosis Synthetic Peptide) [SEQ ID 8, oligopeptide from MT Exported Repetitive Protein (Erp)]”, the Immunogenicity group result was “relatively strong immunogenicity”, the “Overall ranking of antigenicity” value is 3, the “Antigenicity compared to best ranking peptide (Average value calculated by removing outlier which exceeded 1 SD value)” value is given as 4.6 and the “Antigenicity compared to best ranking peptide (Median value)” value is 4.5.

In the case of “A-G-R-R-C-L-D-A-G (AGRRCLDAG; Mycobacterium Tuberculosis Synthetic Peptide) [SEQ ID 11, oligopeptide from MT Cytotoxin/Hemolysin]”, the Immunogenicity group entry is given as “intermediate immunogenicity”, the “Overall ranking of antigenicity” value amounted to 6, the “Antigenicity compared to best ranking peptide (Average value calculated by removing outlier which exceeded 1 SD value)” value was 16.5 and the “Antigenicity compared to best ranking peptide (Median value)” value turned out to be 34.2.

Consider “N-E-L-G-A-S-Q-A-I-D-L-L-K-G-V (NELGASQAIDLLKGV; Mycobacterium Tuberculosis Synthetic Peptide) [SEQ ID 9, oligopeptide from MT Exported Repetitive Protein (Erp)]”, for which the Immunogenicity group result was “intermediate immunogenicity”, the “Overall ranking of antigenicity” value worked out at 5, the “Antigenicity compared to best ranking peptide (Average value calculated by removing outlier which exceeded 1 SD value)” value is 16.1 and the “Antigenicity compared to best ranking peptide (Median value)” value worked out at 22.3.

For “S-D-P-A-W-K-R-N-D-P-M-V-Q-I-P-R-L (SDPAWKRNDPMVQIPRL; Mycobacterium Tuberculosis Synthetic Peptide) [SEQ ID 6, oligopeptide from MT Antigen 85 (Ag 85)]”, the Immunogenicity group entry is “relatively strong immunogenicity”, the “Overall ranking of antigenicity” value is given as 1, the “Antigenicity compared to best ranking peptide (Average value calculated by removing outlier which exceeded 1 SD value)” value was 1.0 and the “Antigenicity compared to best ranking peptide (Median value)” value is recorded as 1.1.

Turning to “T-Y-K-W-E-T-F-L-T-R-E-M-P-A (TYKWETFLTREMPA; Mycobacterium Tuberculosis Synthetic Peptide) [SEQ ID 5, oligopeptide from MT Antigen 85 (Ag 85)]”, the Immunogenicity group entry is “intermediate immunogenicity”, the “Overall ranking of antigenicity” value is recorded as 9, the “Antigenicity compared to best ranking peptide (Average value calculated by removing outlier which exceeded 1 SD value)” value is listed as 21.8 and the “Antigenicity compared to best ranking peptide (Median value)” value stood at 47.4.

Consider T-D-T-R-S-R-V-E-E-S-R-A-R-L [SEQ ID 1], for which the Immunogenicity group entry is listed as “intermediate immunogenicity”, the “Overall ranking of antigenicity” value is listed as 8, the “Antigenicity compared to best ranking peptide (Average value calculated by removing outlier which exceeded 1 SD value)” value is on record as 44.5 and the “Antigenicity compared to best ranking peptide (Median value)” value is on record as 38.1.

In the case of “S-M-G-R-D-I-K-V-Q-F-Q-G (SMGRDIKVQFQG; Mycobacterium Tuberculosis Synthetic Peptide) [SEQ ID 3, oligopeptide from MT Antigen 85 (Ag 85)]”, the Immunogenicity group entry is reported as “intermediate immunogenicity”, the “Overall ranking of antigenicity” value was determined as 11, the “Antigenicity compared to best ranking peptide (Average value calculated by removing outlier which exceeded 1 SD value)” value is reported as 26.5 and the “Antigenicity compared to best ranking peptide (Median value)” value stood at 35.8.

Consider S-R-Y-N-E-L-V-E-R-G-E-A [SEQ ID 2], for which the Immunogenicity group entry was “intermediate immunogenicity”, the “Overall ranking of antigenicity” value is 4, the “Antigenicity compared to best ranking peptide (Average value calculated by removing outlier which exceeded 1 SD value)” value was 10.6 and the “Antigenicity compared to best ranking peptide (Median value)” value came out at 15.0.

As for “G-D-N-I-P-A-K-F-L-E-G-T-L-R-T (GDNIPAKFLEGTLRT; Mycobacterium Tuberculosis Synthetic Peptide) [SEQ ID 7, oligopeptide from MT Antigen 85 (Ag 85)]”, the Immunogenicity group entry is listed as “intermediate immunogenicity”, the “Overall ranking of antigenicity” value came out at 7, the “Antigenicity compared to best ranking peptide (Average value calculated by removing outlier which exceeded 1 SD value)” value is 11.6 and the “Antigenicity compared to best ranking peptide (Median value)” value turned out to be 73.5.

Consider “T-D-S-E-R-A-W-V-S-R-G-A (TDSERAWVSRGA; Mycobacterium Tuberculosis Synthetic Peptide) [SEQ ID 10, oligopeptide from MT Cytotoxin/Hemolysin]”, for which the Immunogenicity group entry is reported as “intermediate immunogenicity”, the “Overall ranking of antigenicity” value is recorded as 10, the “Antigenicity compared to best ranking peptide (Average value calculated by removing outlier which exceeded 1 SD value)” value is listed as 27.6 and the “Antigenicity compared to best ranking peptide (Median value)” value is 24.5.
